From patent publication US20250127933A1, “Method of verifying effectiveness and stability of linker in Drug Delivery system and Structure therefor” (INDUSTRY-ACADEMIC COOPERATION FOUNDATION OF SUNCHON …, priority 2023, published 2025)

Tests used:
[1] = pH-dependent stability test; type: physicochemical; details: 1 μM probe, pH 2 to 12, 25° C.
Procedure: Thermal stability was evaluated by the incubation of 1 μM of the probe in PBS buffer (pH 7.4) at different temperatures ranging from 25 to 45° C. for 20 min and reading fluorescence at each temperature. The pH stability test was performed by the incubation with 1 μM probe in different pH buffers (2 to 13) at 25° C. and recording fluorescence at each pH.

[2] = tested on: Leucine aminopeptidase (LAP); experiment: Enzymatic kinetic study of LAP reaction of activatable fluorescent probes; type: biochemical, porcine
Procedure: All spectroscopic readings were measured with BioTek Synergy™ H1 spectrophotometer, using 96 well microplate. A parent stock solution of probes was dissolved in DMSO to obtain 10 mM. Leucine aminopeptidase was dissolved in deionized water to obtain 1 mg/mL. All spectra measurements were carried out in PBS buffer solution (PBS buffer, 10 mM, pH 7.4, 37° C. The final volume in 96 well microplate was adjusted to 200 μL. RPMI 1640 was obtained from Thermo Scientific (Waltham, MA, USA). Bestatin hydrochloride (LAP inhibitor), DMSO and 2-mercaptoethanol were purchased from Sigma Aldrich (St. Louis, Mo, USA).
The kinetic study for LAP reaction was performed by incubation of 2 μg of LAP ([…]) with 1 μM probe in PBS buffer (10 mM, pH 7.4). The plate was incubated at 37° C. for 80 min with continuous shaking, and the emission spectra were recorded at the corresponding wavelength over time. A solution of LAP (2 μg/200 μL) was pretreated with bestatin (0, 1, 10, 50 and 100 μM) in PBS (10 mM, pH 7.4) at 37° C. for 30 min, and then 1 μM of probe was added. The mixture was incubated at 37° C., and the fluorescence was recorded on Synergy™ H1 using a 96-well microplate.
All reagents and solvents were obtained from commercial sources Sigma-Aldrich Chemical Co., Combi-Block, Tokyo Chemical Industries, Daejung Chemicals, and Alfa Aesar and used without purification. Anhydrous solvents were purchased from Sigma-Aldrich and used under dry nitrogen atmosphere. Ultrapure water was obtained from a water ultra-purification system. Completion of reaction was confirmed by thin layer chromatography (TLC) on Kiesegel 60F254 from Merck and all synthesized compounds were purified by flash column chromatography using ZEOprep 60 (40-63) […] silica gel from ZEOCHEM. ^1H and ^13C NMR spectra were measured on JEOL JNMECZ400s/L1 (400 MHZ) and CDCl3 or DMSO-d6 was used as the NMR solvents. The chemical shifts were quoted in parts per million (ppm) and the coupling constant (J) were reported in hertz unit (Hz). Chemical shifts (in ppm) were referenced to tetramethylsilane (δ=0 ppm) in CDCl3 as an internal standard. ^13C NMR spectra were reported in ppm referenced to the center line of the triplet at 77.0 ppm for CDCl3 or 39.5 ppm for DMSO-d6. All in vitro enzyme assays were performed by taking the absorbance and emission on Synergy™ H1 microplate reader from BioTek. Leucine aminopeptidase from porcine kidney and other enzymes were purchased from Sigma-Aldrich.

[3] = target: T1, Leucine aminopeptidase (LAP) (Sus scrofa, UniProt P15145); experiment: Selectivity test against various bioanalytes; type: biochemical, porcine; details: 1 μM probe, 1 mM analytes or 1 U/mL enzymes, 0.05 U/mL LAP, PBS pH 7.4, 37° C., 1 h
T1 construct: purchased Sigma-Aldrich; host or cells: porcine kidney (tissue-derived enzyme)
T1 sequence (P15145 33-963 limits assumed): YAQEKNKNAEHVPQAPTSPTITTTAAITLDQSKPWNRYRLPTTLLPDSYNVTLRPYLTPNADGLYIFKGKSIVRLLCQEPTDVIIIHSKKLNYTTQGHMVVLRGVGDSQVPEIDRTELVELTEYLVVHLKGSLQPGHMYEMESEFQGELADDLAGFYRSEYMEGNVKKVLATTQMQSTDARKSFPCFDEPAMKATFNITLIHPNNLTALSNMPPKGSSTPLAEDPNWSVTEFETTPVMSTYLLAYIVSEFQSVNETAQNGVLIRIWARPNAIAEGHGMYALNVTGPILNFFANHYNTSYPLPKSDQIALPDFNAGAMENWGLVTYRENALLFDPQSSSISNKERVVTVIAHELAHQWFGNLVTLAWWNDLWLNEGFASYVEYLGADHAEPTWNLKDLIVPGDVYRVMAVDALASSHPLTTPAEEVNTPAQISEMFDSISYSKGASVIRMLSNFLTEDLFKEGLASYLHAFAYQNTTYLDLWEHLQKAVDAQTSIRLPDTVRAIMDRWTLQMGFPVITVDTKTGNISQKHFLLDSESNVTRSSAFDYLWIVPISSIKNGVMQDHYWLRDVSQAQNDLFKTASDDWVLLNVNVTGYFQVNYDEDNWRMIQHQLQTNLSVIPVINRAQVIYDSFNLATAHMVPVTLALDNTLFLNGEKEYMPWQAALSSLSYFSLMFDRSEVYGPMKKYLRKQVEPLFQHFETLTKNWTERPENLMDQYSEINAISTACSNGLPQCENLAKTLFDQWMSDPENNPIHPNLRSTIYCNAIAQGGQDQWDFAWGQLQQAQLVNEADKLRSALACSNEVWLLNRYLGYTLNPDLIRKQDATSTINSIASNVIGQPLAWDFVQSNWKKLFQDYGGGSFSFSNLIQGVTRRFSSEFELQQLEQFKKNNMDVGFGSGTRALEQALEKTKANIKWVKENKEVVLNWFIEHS
Procedure: 1 μM of probe was incubated with various bioanalytes containing 1 mM of NaOCl, H2O2, CaCl2), ZnCl2, KCl, NaCl, GSH, vitamin C, L-cystein, L-arginine, L-alanine and 1 U/mL of α-amylase, lysozyme, cellulase under 0.05 U/mL of LAP in PBS (10 mM, pH 7.4) at 37° C. for 1 h. The fluorescence was recorded on Synergy™ H1 microplate reader.

[4] = tested on: Leucine aminopeptidase (LAP); experiment: Enzymatic kinetic study of LAP reaction of activatable fluorescent probes; type: biochemical, porcine; details: 1 μM probe; LAP 1, 5, 10, 20, 50, 100 μg/mL; PBS pH 7.4, 80 min, 37° C.
[5] = Ex vivo plasma stability in mice serum; type: in vitro ADME, C57BL/6 mice; details: 10 μM probe, 48 h
Procedure: Animal was treated strictly according to the guidelines for laboratory animal care and use issued by the Sunchon National University Institutional Animal Care and Use Committee (SCNU IACUC). Female C57/BL6 mice (7 weeks old), weighing about 17-20 g, were purchased from Orientbio (Orientbio Inc., Seongnam, Korea). Blood was collected from the posterior orbital plexus in normal mice and centrifuged (5000 rpm, 4° C., 5 minutes) to obtain serum. The stability study was performed by incubation of the fluorescent probe (10 μM) or rhodol fluorophore (0.1, 0.3, 1, 3 and 10 μM) with serum at 37° C. . . . The fluorescence was detected on Synergy™ H1 microplate reader.

HepG2 cells [6] = experiment: Confocal live cell imaging in HepG2 cells; type: cell-based; details: bestatin 500 μM pretreatment for 1 h, Rhodo-P1 1 μM
Procedure: HepG2 cells were maintained in DMEM medium containing 10% FBS and 1% antibiotics in the 15 μ-plate 96 well black (ibidi, Germany). HepG2 cells were incubated with or without 500 μM of bestatin, LAP inhibitor, for 1 h and subsequently treated with 1 μM of probe and Lyso-Tracker™ Red (Thermo Scientific, USA) for 1 h. The treated cells were washed three times with PBS and treated with 10 μM of DAPI (Thermo Scientific, USA) for 2 h. Imaged were collected by Leica confocal microscopy (TCS SP5 AOBS/Tandem, Leica, Germany). Lyso-Tracker™ Red was excited by 514 nm and detected by 570-620 nm, compounds were excited by 476 nm and detected by 505-545 nm, DAPI was excited by 405 nm and detected by 420-470 nm.

[7] = tested on: Leucine aminopeptidase (LAP); experiment: Competitive assay with LAP inhibitor bestatin; type: biochemical, porcine; details: bestatin pretreatment 0, 1, 10, 50, 100 μM; LAP 10 μg/mL; PBS pH 7.4, 37° C.
HepG2 cells [8] = experiment: Kinetic and competitive study in HepG2 cells; type: cell-based; details: bestatin pretreatment 0, 10, 100 μM; Rhodo-P2 2.0 μM
Procedure: HepG2 cells (3×10^4 cells/well) were seeded in black-walled, transparent bottomed 96-well plates and cultured overnight. […] Kinetic study was performed in Synergy™ H1 microplate reader.

## COc1ccc2c(c1)Oc1cc(NC(=O)OCc3ccc(NC(=O)[C@@H](N)CC(C)C)cc3)ccc1C21OC(=O)c2ccccc21 (stereo partly drawn) [Probe 4, 4-((S)-2-Amino-4-methylpentanamido)benzyl methoxy-3-oxo-3H-spiro[isobenzofuran-1,9′-xanthen]-6′-(3′-yl)carbamate]
[1]
  pH-dependent stability (fluorescence of fluorophore released by degradation): no change in fluorescence emission according to the change in pH
[2]; 1 μM probe, 10 μg/mL LAP, PBS pH 7.4, 37° C., 80 min
  Fluorophore released in LAP reaction (% yield): 76.9%
[2]; 1 μM probe, 10 μg/mL LAP, PBS pH 7.4, 37° C., 80 min, calculated from fluorophore calibration curves
  Fluorophore released in LAP reaction (concentration): ~0.769 µM
[2]; LAP reaction, enzymatic study
  LAP response / fluorophore release (in words): high yields of LAP reactions
[3]
  selectivity for LAP over other bioanalytes (fluorescence response): most biocompatible in selectivity tests as well as pH and thermal stability tests
[4]
  LAP response at various concentrations of LAP: nearly maximal responses at 10 μg/mL of LAP
[5]; C57/BL6 mice serum
  time-dependent fluorescence emission in serum: fluorescence emission with a gentle increasing slope
[5]; C57BL/6 mice serum, 37° C.
  % survival rate of probe in serum: 48%

## CC(C)C[C@H](NC(=O)[C@@H](O)[C@H](N)Cc1ccccc1)C(=O)O [bestatin]
HepG2 cells [6]
  effect of bestatin on probe fluorescence in confocal live cell imaging: only showed blue staining by DAPI without green fluorescence from the LAP probe
[7]
  inhibition of LAP reaction of Rhodo-P2 (fluorescence emission): reduced fluorescence emission by released fluorophores in a concentration-dependent manner
HepG2 cells [8]
  inhibition of Rhodo-P2 response in HepG2 cells: concentration-dependent inhibition of Rhodo-P2
